# Data as given in BindingDB's records for doi:10.7270/Q2TX3CSC (Vanderbilt Screening Center for GPCRs, Ion Channels and …, 2009).
# Biological target: T1, Solute carrier family 12 member 5 (Homo sapiens, UniProt Q9H2X9)
# T1 sequence (Q9H2X9 whole entry): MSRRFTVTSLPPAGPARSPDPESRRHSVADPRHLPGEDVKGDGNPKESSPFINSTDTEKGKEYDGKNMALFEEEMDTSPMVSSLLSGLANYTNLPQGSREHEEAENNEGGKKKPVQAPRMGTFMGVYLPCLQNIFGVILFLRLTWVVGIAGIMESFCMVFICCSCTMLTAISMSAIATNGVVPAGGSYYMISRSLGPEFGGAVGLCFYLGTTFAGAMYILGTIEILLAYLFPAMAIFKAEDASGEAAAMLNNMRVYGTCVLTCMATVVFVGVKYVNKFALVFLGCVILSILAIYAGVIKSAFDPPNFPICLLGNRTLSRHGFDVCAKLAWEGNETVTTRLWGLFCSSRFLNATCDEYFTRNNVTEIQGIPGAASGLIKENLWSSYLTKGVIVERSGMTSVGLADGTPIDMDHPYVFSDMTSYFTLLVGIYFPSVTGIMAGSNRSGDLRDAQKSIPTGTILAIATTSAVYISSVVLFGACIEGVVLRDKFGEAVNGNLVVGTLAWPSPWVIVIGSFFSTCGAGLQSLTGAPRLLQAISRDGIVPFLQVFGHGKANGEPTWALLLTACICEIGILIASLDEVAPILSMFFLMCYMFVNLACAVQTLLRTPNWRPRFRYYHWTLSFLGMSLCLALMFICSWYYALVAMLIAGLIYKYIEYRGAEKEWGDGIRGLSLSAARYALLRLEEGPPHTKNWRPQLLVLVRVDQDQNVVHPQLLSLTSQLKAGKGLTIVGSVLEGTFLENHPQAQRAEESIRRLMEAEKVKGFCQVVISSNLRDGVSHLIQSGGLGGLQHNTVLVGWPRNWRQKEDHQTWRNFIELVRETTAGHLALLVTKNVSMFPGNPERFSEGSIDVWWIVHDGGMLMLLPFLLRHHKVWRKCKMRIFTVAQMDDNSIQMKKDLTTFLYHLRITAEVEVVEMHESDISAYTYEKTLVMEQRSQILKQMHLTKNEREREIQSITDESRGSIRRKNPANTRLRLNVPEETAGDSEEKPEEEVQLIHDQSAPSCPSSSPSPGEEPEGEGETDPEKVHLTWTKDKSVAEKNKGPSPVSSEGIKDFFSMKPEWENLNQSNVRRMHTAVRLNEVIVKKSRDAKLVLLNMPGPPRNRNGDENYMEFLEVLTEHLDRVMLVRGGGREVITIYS
# Assay: concentration-response of KCC2 transport modulators – cell-based, HEK293 KCC2, FluoZin-2 fluorescence, dose response (AID 1736)
# Details: not given
row,Structure (SMILES),EC50
1,c1ccc(-c2nnc(Sc3ncnc4c3cnn4-c3ccccc3)[nH]2)cc1 [SMR000019566],5.95 µM
2,CS/C(=N\Cc1ccc(F)cc1)NS(=O)(=O)c1cccs1 [3-(4-fluorobenzyl)-2-methyl-1-(2-thienylsulfonyl)isothiourea],0.702 µM
3,COc1cc(C(=S)N2CCOCC2)ccc1OC(=O)Cc1ccc(F)cc1 [(2-methoxy-4-morpholin-4-ylcarbothioyl-phenyl) 2-(4-fluorophenyl)ethanoate],29.4 µM
4,O=C(NC1CCCC1)C(c1ccncc1)N(Cc1ccco1)C(=O)c1ccc(-c2ccccc2)[nH]1 (stereo not drawn) [MLS000718066],19.2 µM
5,"Cc1noc(/C=C/c2ccco2)c1S(=O)(=O)N1CCC(C(=O)N2CCc3ccccc3C2)CC1 [2-{[1-({5-[(E)-2-(2-furyl)vinyl]-3-methylisoxazol-4-yl}sulfonyl)piperidin-4-yl]carbonyl}-1,2,3,4-tetrahydroisoquinoline]",4.09 µM
6,"Cc1cc(C)c(C#N)c(N2CCN(Cc3ccccc3)CC2)n1 [2-(4-benzyl-1-piperazinyl)-4,6-dimethylnicotinonitrile]",11.3 µM
7,"COc1cccc(C=c2sc(=CC(=O)c3ccc(C)cc3)[nH]c2=O)c1OC [5-[(2,3-dimethoxyphenyl)methylidene]-2-[2-(4-methylphenyl)-2-oxidanylidene-ethylidene]-1,3-thiazolidin-4-one]",15.5 µM
8,"O=[N+]([O-])c1ccc(CSc2nnc(SCc3ccccc3)s2)cc1 [2-(benzylthio)-5-[(4-nitrobenzyl)thio]-1,3,4-thiadiazole]",2.24 µM
9,"O=c1c2ccccc2c(-c2nnc(S)o2)nn1Cc1ccccc1 [2-(phenylmethyl)-4-(2-sulfanylidene-3H-1,3,4-oxadiazol-5-yl)-1-phthalazinone]",2.98 µM
10,"Cc1cc(NC(=O)CSc2ccc(-c3ccc(F)cc3)nn2)no1 [2-[6-(4-fluorophenyl)pyridazin-3-yl]sulfanyl-N-(5-methyl-1,2-oxazol-3-yl)acetamide]",0.171 µM
11,"CC1(CCc2ccccc2)NC(=O)N(Cc2nnc(-c3ccccc3Br)o2)C1=O (stereo not drawn) [3-[[5-(2-bromophenyl)-1,3,4-oxadiazol-2-yl]methyl]-5-methyl-5-(2-phenylethyl)imidazolidine-2,4-dione]",14.3 µM
12,"O=C(NCc1cccnc1)c1ccc(COc2ccc(Cl)cc2Cl)o1 [5-[(2,4-dichlorophenoxy)methyl]-N-(3-pyridinylmethyl)-2-furancarboxamide]",668 µM
13,"O=C(C1CCN(c2nc3ccc(Br)cc3s2)CC1)N1CCC2(CC1)OCCO2 [8-{[1-(6-bromo-1,3-benzothiazol-2-yl)piperidin-4-yl]carbonyl}-1,4-dioxa-8-azaspiro[4.5]decane]",14.3 µM
14,"CCC(Cc1ccccc1)NC(=O)CN(C)S(=O)(=O)c1ccc2c(c1)c(=O)n(C)c(=O)n2C (stereo not drawn) [2-[(1,3-dimethyl-2,4-dioxo-6-quinazolinyl)sulfonyl-methylamino]-N-(1-phenylbutan-2-yl)acetamide]",7.26 µM
15,O=C(COC(=O)c1cc([N+](=O)[O-])ccc1NCCO)c1ccccc1 [2-(2-hydroxyethylamino)-5-nitro-benzoic acid phenacyl ester],9.16 µM
16,O=C(Nc1ccc2oc(-c3ccccc3)nc2c1)c1ccncc1 [MLS000109492],4.95 µM
17,"O=C(CSc1nnc(C2CC2)n1Cc1ccccc1)c1cc2ccccc2o1 [1-(1-benzofuran-2-yl)-2-[(4-benzyl-5-cyclopropyl-1,2,4-triazol-3-yl)sulfanyl]ethanone]",21.2 µM
18,"N#Cc1nc(-c2cccs2)oc1N1CCN(Cc2ccccc2)CC1 [5-(4-benzyl-1-piperazinyl)-2-(2-thienyl)-1,3-oxazole-4-carbonitrile]",3.58 µM
19,O=C(NCc1nc(-c2ccccc2)cs1)c1ccccc1 [MLS000661971],6.49 µM

row,Structure (SMILES),EC50
1,COCCNS(=O)(=O)c1ccc(-c2ccc(Cl)cc2)cc1 [4'-chloro-N-(2-methoxyethyl)-4-biphenylsulfonamide],6 µM
2,Cc1ccc(C(=O)CC=Nc2ccccc2C(N)=O)cc1 [2-[[(E)-3-(4-methylphenyl)-3-oxidanylidene-prop-1-enyl]amino]benzamide],3.36 µM
3,"CC1Cc2ccccc2N1C(=O)c1ccc(N2CCCC2)c([N+](=O)[O-])c1 (stereo not drawn) [(2-methyl-2,3-dihydroindol-1-yl)-(3-nitro-4-pyrrolidin-1-yl-phenyl)methanone]",0.772 µM
4,COc1ccccc1NC(=S)NNC1=c2cc(Br)ccc2=NC1=O [MLS000778253],0.71 µM
5,"CCCn1c(N)c(C(=O)CSc2nnc(Cc3ccccc3)o2)c(=O)n(C)c1=O [6-amino-3-methyl-5-[1-oxo-2-[[5-(phenylmethyl)-1,3,4-oxadiazol-2-yl]thio]ethyl]-1-propylpyrimidine-2,4-dione]",0.017 µM
6,NC(=S)NN=C1C(=O)N(Cc2ccc(F)cc2)c2ccccc21 [1-[(Z)-[1-[(4-fluorophenyl)methyl]-2-oxidanylidene-indol-3-ylidene]amino]thiourea],144 µM
7,"CCn1c(=O)n(CC)c2cc(S(=O)(=O)N3CCC(c4ccccc4)CC3)ccc21 [1,3-diethyl-5-(4-phenylpiperidin-1-yl)sulfonyl-benzimidazol-2-one]",10.8 µM
8,CCn1c(CCNC(=O)c2cccs2)nnc1SCC(=O)Nc1nc(-c2ccccc2)cs1 [MLS000548611],4.57 µM
9,CCN(CC)S(=O)(=O)c1ccc(NC(=O)CSc2ncnc3ccccc23)cc1 [MLS000393282],1.1 µM
10,"COCCN1C(=O)/C(=C/c2ccc(OCc3ccc(C(=O)O)cc3)c(OC)c2)S/C1=N/c1ccccc1 [4-[(2-methoxy-4-{[3-(2-methoxyethyl)-4-oxo-2-(phenylimino)-1,3-thiazolidin-5-ylidene]methyl}phenoxy)methyl]benzoic acid]",44.9 µM
11,"Sc1nnc(Cc2c[nH]c3ccccc23)o1 [5-(1H-indol-3-ylmethyl)-1,3,4-oxadiazole-2(3H)-thione]",16.1 µM
12,NC(=S)NN=C1C(=O)N(Cc2ccccc2)c2ccccc21 [1-[(Z)-[2-oxidanylidene-1-(phenylmethyl)indol-3-ylidene]amino]thiourea],0.295 µM
13,Cc1ccc(NC(=O)c2ccccc2NS(=O)(=O)c2ccc(Cl)s2)cc1 [2-[(5-chloranylthiophen-2-yl)sulfonylamino]-N-(4-methylphenyl)benzamide],1.17 µM
14,CCc1ccc(OCCNC(=O)c2ccccc2SCc2ccccc2)cc1 [2-(benzylthio)-N-[2-(4-ethylphenoxy)ethyl]benzamide],7.39 µM
15,O=S(=O)(NC1CCCC1)c1cccc(S(=O)(=O)N2CCC(n3nnc4ccccc43)CC2)c1 [3-(4-Benzotriazol-1-yl-piperidine-1-sulfonyl)-N-cyclopentyl-benzenesulfonamide],4.9 µM
16,"COC(=O)[C@@H](NC(=O)O[C@@H]1C(=O)c2ccc(OC)cc2O[C@H]1c1cccc(C(F)(F)F)c1)C(C)C [(2S)-2-[[(2S,3S)-4-keto-7-methoxy-2-[3-(trifluoromethyl)phenyl]chroman-3-yl]oxycarbonylamino]-3-methyl-butyric acid methyl ester]",1.24 µM
17,O=C(NN1C(=O)/C(=C/c2nc3ccccc3[nH]2)SC1=S)c1ccccc1Cl [N-{5-[1-(1H-Benzoimidazol-2-yl)-meth-(Z)-ylidene]-4-oxo-2-thioxo-thiazolidin-3-yl}-2-chloro-benzamide],0.0822 µM
18,"COc1cc(C(=S)N2CCOCC2)cc(OC)c1OC(=O)Cc1ccccc1 [(2,6-dimethoxy-4-morpholin-4-ylcarbothioyl-phenyl) 2-phenylethanoate]",0.81 µM

# Same assay, conditions: inactive by the depositor's call
row,Structure (SMILES),EC50
1,O=c1oc2ccccc2c(Nc2cc3ccccc3cc2O)c1[N+](=O)[O-] [3-nitro-4-[(3-oxidanylnaphthalen-2-yl)amino]chromen-2-one],11.4 µM
2,CCCn1c(NC(=S)Nc2ccccc2)nc2ccccc21 [1-phenyl-3-(1-propyl-2-benzimidazolyl)thiourea],60400 µM
3,O=C(/C=C/c1ccccc1)Nc1scc(-c2ccccc2)c1C(=O)O [2-[[(E)-1-oxo-3-phenylprop-2-enyl]amino]-4-phenyl-3-thiophenecarboxylic acid],0.134 µM
4,"Cc1ccc(CN(C)C(=O)c2cc(COc3ccc(F)cc3Cl)on2)o1 [5-[(2-chloranyl-4-fluoranyl-phenoxy)methyl]-N-methyl-N-[(5-methylfuran-2-yl)methyl]-1,2-oxazole-3-carboxamide]",89.2 µM
5,Cc1ccc(-c2nn(Cc3ccccc3)cc2/C=C/C(=O)O)cc1 [(E)-3-[1-benzyl-3-(4-methylphenyl)pyrazol-4-yl]prop-2-enoic acid],12.1 µM
6,CN(C)S(=O)(=O)c1ccc(NC(=O)CSc2ncnc3ccccc23)cc1 [MLS000394067],87700 µM
